Tests used:
B. subtilis 168 [1] = test: fitness (endpoint OD595 vs no drug) (fraction); higher = more growth
How it was run: (§1)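 Each well of a 384-well plate received 30 µl of culture at OD595 0.01, or 55 µl for S. pneumoniae. TSB, LB Lennox or CY served as media at 37 °C. OD595 was taken every 30 min for 14 h and corrected by subtracting the first reading. Fitness is the optical density at stationary-phase entry divided by the robust mean of no-drug controls, capped at 1.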

S. aureus DSM 20231 [2] = test: as above
How it was run: as §1

S. aureus Newman [3] = test: as above
How it was run: as §1

S. pneumoniae D39V [4] = test: as above
How it was run: as §1

B. subtilis 168 [5] = test: Bliss interaction score (quartile over a dose matrix) (fitness difference); higher = more antagonism (negative = synergy)
How it was run: (§2)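 Quartiles summarise the Bliss score over technical, biological and donor/recipient replicates, where the score is observed minus expected fitness under a product model. Expected fitness uses single-drug values inferred from combination data. Fitness is OD595 at entry into stationary phase over the plate's robust no-drug mean, capped at 1.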

S. aureus DSM 20231 [6] = test: as above
How it was run: as §2

S. aureus Newman [7] = test: as above
How it was run: as §2

S. pneumoniae D39V [8] = test: as above
How it was run: as §2
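Wherever Bliss interaction score (quartile over a dose matrix) is given: first quartile when negative (synergy) and third quartile when positive (antagonism).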

CO/N=C(\C(=O)N[C@@H]1C(=O)N2C(C(=O)O)=C(COC(C)=O)CS[C@H]12)c1csc(N)n1 [Cefotaxime] + COc1c(N2C[C@@H]3CCCN[C@@H]3C2)c(F)cc2c(=O)c(C(=O)O)cn(C3CC3)c12 [Moxifloxacin]
one replicate
Conditions	fitness
B. subtilis 168 [1], first compound 0.00775 µg/mL, partner 0.0312 µg/mL	0.0585
B. subtilis 168 [1], first compound 0.00775 µg/mL, partner 0.0625 µg/mL	0.0377
B. subtilis 168 [1], first compound 0.00775 µg/mL, partner 0.125 µg/mL	0.0204
B. subtilis 168 [1], first compound 0.0155 µg/mL, partner 0.0312 µg/mL	0.0281
B. subtilis 168 [1], first compound 0.0155 µg/mL, partner 0.0625 µg/mL	0.0221
B. subtilis 168 [1], first compound 0.0155 µg/mL, partner 0.125 µg/mL	0.0115
B. subtilis 168 [1], first compound 0.031 µg/mL, partner 0.0312 µg/mL	0.041
B. subtilis 168 [1], first compound 0.031 µg/mL, partner 0.0625 µg/mL	0.028
B. subtilis 168 [1], first compound 0.031 µg/mL, partner 0.125 µg/mL	0.0186
S. aureus DSM 20231 [2], first compound 0.039 µg/mL, partner 0.06 µg/mL	0.611
S. aureus DSM 20231 [2], first compound 0.039 µg/mL, partner 0.12 µg/mL	0.449
S. aureus DSM 20231 [2], first compound 0.078 µg/mL, partner 0.06 µg/mL	0.588
S. aureus DSM 20231 [2], first compound 0.078 µg/mL, partner 0.12 µg/mL	0.478
S. aureus DSM 20231 [2], first compound 0.156 µg/mL, partner 0.06 µg/mL	0.568
S. aureus DSM 20231 [2], first compound 0.156 µg/mL, partner 0.12 µg/mL	0.445
S. aureus DSM 20231 [2], first compound 0.312 µg/mL, partner 0.06 µg/mL	0.518
S. aureus DSM 20231 [2], first compound 0.312 µg/mL, partner 0.12 µg/mL	0.408
S. aureus Newman [3], first compound 0.039 µg/mL, partner 0.0075 µg/mL	0.669
S. aureus Newman [3], first compound 0.039 µg/mL, partner 0.015 µg/mL	0.529
S. aureus Newman [3], first compound 0.039 µg/mL, partner 0.03 µg/mL	0.0684

Conditions	fitness
B. subtilis 168 [1], first compound 0.0625 µg/mL, partner 0.0312 µg/mL	0.0617
B. subtilis 168 [1], first compound 0.0625 µg/mL, partner 0.0625 µg/mL	0.0437
B. subtilis 168 [1], first compound 0.0625 µg/mL, partner 0.125 µg/mL	0.0547
B. subtilis 168 [1], first compound 0.125 µg/mL, partner 0.0312 µg/mL	0.062
B. subtilis 168 [1], first compound 0.125 µg/mL, partner 0.0625 µg/mL	0.044
B. subtilis 168 [1], first compound 0.125 µg/mL, partner 0.125 µg/mL	0.05
B. subtilis 168 [1], first compound 0.25 µg/mL, partner 0.0312 µg/mL	0.0545
B. subtilis 168 [1], first compound 0.25 µg/mL, partner 0.0625 µg/mL	0.0527
B. subtilis 168 [1], first compound 0.25 µg/mL, partner 0.125 µg/mL	0.0632
B. subtilis 168 [1], first compound 0.5 µg/mL, partner 2 µg/mL	0.0626
B. subtilis 168 [1], first compound 0.5 µg/mL, partner 4 µg/mL	0.0595
B. subtilis 168 [1], first compound 0.5 µg/mL, partner 8 µg/mL	0.043
B. subtilis 168 [1], first compound 1 µg/mL, partner 2 µg/mL	0.0496
B. subtilis 168 [1], first compound 1 µg/mL, partner 4 µg/mL	0.0443
B. subtilis 168 [1], first compound 1 µg/mL, partner 8 µg/mL	0.0259
B. subtilis 168 [1], first compound 2 µg/mL, partner 2 µg/mL	0.0811
B. subtilis 168 [1], first compound 2 µg/mL, partner 4 µg/mL	0.0907
B. subtilis 168 [1], first compound 2 µg/mL, partner 8 µg/mL	0.0539
S. aureus DSM 20231 [2], first compound 0.039 µg/mL, partner 0.0075 µg/mL	0.674
S. aureus DSM 20231 [2], first compound 0.039 µg/mL, partner 0.015 µg/mL	0.612
S. aureus DSM 20231 [2], first compound 0.039 µg/mL, partner 0.03 µg/mL	0.543
S. aureus DSM 20231 [2], first compound 0.078 µg/mL, partner 0.0075 µg/mL	0.668
S. aureus DSM 20231 [2], first compound 0.078 µg/mL, partner 0.015 µg/mL	0.634
S. aureus DSM 20231 [2], first compound 0.078 µg/mL, partner 0.03 µg/mL	0.554
S. aureus DSM 20231 [2], first compound 0.156 µg/mL, partner 0.0075 µg/mL	0.636
S. aureus DSM 20231 [2], first compound 0.156 µg/mL, partner 0.015 µg/mL	0.603
S. aureus DSM 20231 [2], first compound 0.156 µg/mL, partner 0.03 µg/mL	0.536
S. aureus DSM 20231 [2], first compound 0.312 µg/mL, partner 0.0075 µg/mL	0.574
S. aureus DSM 20231 [2], first compound 0.312 µg/mL, partner 0.015 µg/mL	0.549
S. aureus DSM 20231 [2], first compound 0.312 µg/mL, partner 0.03 µg/mL	0.491
S. aureus Newman [3], first compound 0.078 µg/mL, partner 0.0075 µg/mL	0.657
S. aureus Newman [3], first compound 0.078 µg/mL, partner 0.015 µg/mL	0.498
S. aureus Newman [3], first compound 0.078 µg/mL, partner 0.03 µg/mL	0.0551
S. aureus Newman [3], first compound 0.156 µg/mL, partner 0.0075 µg/mL	0.558
S. aureus Newman [3], first compound 0.156 µg/mL, partner 0.015 µg/mL	0.432
S. aureus Newman [3], first compound 0.156 µg/mL, partner 0.03 µg/mL	0.046
S. aureus Newman [3], first compound 0.312 µg/mL, partner 0.0075 µg/mL	0.354
S. aureus Newman [3], first compound 0.312 µg/mL, partner 0.015 µg/mL	0.165
S. aureus Newman [3], first compound 0.312 µg/mL, partner 0.03 µg/mL	0.0657
S. aureus Newman [3], first compound 0.625 µg/mL, partner 0.0075 µg/mL	0.0357
S. aureus Newman [3], first compound 0.625 µg/mL, partner 0.015 µg/mL	0.019
S. aureus Newman [3], first compound 0.625 µg/mL, partner 0.03 µg/mL	0.0143
S. aureus Newman [3], first compound 1.25 µg/mL, partner 0.0075 µg/mL	0.0365
S. aureus Newman [3], first compound 1.25 µg/mL, partner 0.015 µg/mL	0.0045
S. aureus Newman [3], first compound 1.25 µg/mL, partner 0.03 µg/mL	0.0158
S. aureus Newman [3], first compound 2.5 µg/mL, partner 0.0075 µg/mL	0.0488
S. aureus Newman [3], first compound 2.5 µg/mL, partner 0.015 µg/mL	0.0142
S. aureus Newman [3], first compound 2.5 µg/mL, partner 0.03 µg/mL	0.0162
S. pneumoniae D39V [4], first compound 0.0018 µg/mL, partner 0.005 µg/mL	0.979
S. pneumoniae D39V [4], first compound 0.0018 µg/mL, partner 0.01 µg/mL	0.976
S. pneumoniae D39V [4], first compound 0.0018 µg/mL, partner 0.02 µg/mL	0.987
S. pneumoniae D39V [4], first compound 0.0018 µg/mL, partner 0.0312 µg/mL	0.13
S. pneumoniae D39V [4], first compound 0.0018 µg/mL, partner 0.0625 µg/mL	0.0856
S. pneumoniae D39V [4], first compound 0.0018 µg/mL, partner 0.125 µg/mL	0.0466
S. pneumoniae D39V [4], first compound 0.0035 µg/mL, partner 0.005 µg/mL	0.973
S. pneumoniae D39V [4], first compound 0.0035 µg/mL, partner 0.01 µg/mL	0.976
S. pneumoniae D39V [4], first compound 0.0035 µg/mL, partner 0.02 µg/mL	0.964
S. pneumoniae D39V [4], first compound 0.0035 µg/mL, partner 0.0312 µg/mL	0.108
S. pneumoniae D39V [4], first compound 0.0035 µg/mL, partner 0.0625 µg/mL	0.0929
S. pneumoniae D39V [4], first compound 0.0035 µg/mL, partner 0.125 µg/mL	0.0516
S. pneumoniae D39V [4], first compound 0.007 µg/mL, partner 0.005 µg/mL	0.801
S. pneumoniae D39V [4], first compound 0.007 µg/mL, partner 0.01 µg/mL	0.827
S. pneumoniae D39V [4], first compound 0.007 µg/mL, partner 0.02 µg/mL	0.833
S. pneumoniae D39V [4], first compound 0.007 µg/mL, partner 0.0312 µg/mL	0.0633
S. pneumoniae D39V [4], first compound 0.007 µg/mL, partner 0.0625 µg/mL	0.0639
S. pneumoniae D39V [4], first compound 0.007 µg/mL, partner 0.125 µg/mL	0.046

Conditions	Bliss interaction score
B. subtilis 168 [5]	0.0581
S. aureus DSM 20231 [6]	-0.0497
S. aureus Newman [7]	0.0354
S. pneumoniae D39V [8]	-0.0434

Reference: the supplement of paper PMC10627819
